Laboratory results: publication PMC7347136 (PLoS ONE, 2020)

Legend:
Test in all cases: Carna kinase panel screen
Assay type in all cases: biochemical
Conditions in all cases: read-out: % Inhibition ± SD
ABL = target: T1, ABL (Homo sapiens, UniProt P00519)
T1 construct: purchased Carna Biosciences
Description: (§1) IC50 values were determined from a 10-point concentration curve using ATP concentrations approximating Km values. […] The percentage inhibition of each test solution was calculated, which allowed the IC50 value to be determined from concentration versus percentage inhibition curves by fitting to a four parameter logistic curve.

ACK = target: T2, ACK (Homo sapiens, UniProt Q07912)
T2 construct: purchased Carna Biosciences
Description: as §1

ARG = target: T3, ARG (Homo sapiens, UniProt P42684)
T3 construct: purchased Carna Biosciences
Description: as §1

AurC = target: T4, AurC (Homo sapiens, UniProt Q9UQB9)
T4 construct: purchased Carna Biosciences
Description: as §1

BLK = target: T5, BLK (Homo sapiens, UniProt P51451)
T5 construct: purchased Carna Biosciences
Description: as §1

BMPR1A = target: T6, BMPR1A (Homo sapiens, UniProt P36894)
T6 construct: purchased Carna Biosciences
Description: as §1

BMX = target: T7, BMX (Homo sapiens, UniProt P51813)
T7 construct: purchased Carna Biosciences
Description: as §1

CDK2 = target: T8, CDK2 (Homo sapiens, UniProt P24941)
T8 construct: purchased Carna Biosciences
Description: as §1

CGK2 = target: T9, CGK2 (Homo sapiens, UniProt Q13237)
T9 construct: purchased Carna Biosciences
Description: as §1

CHK2 = target: T10, CHK2 (Homo sapiens, UniProt O96017)
T10 construct: purchased Carna Biosciences
Description: as §1

DAPK1 = target: T11, DAPK1 (Homo sapiens, UniProt P53355)
T11 construct: purchased Carna Biosciences
Description: as §1

EphA3 = target: T12, EphA3 (Homo sapiens, UniProt P29320)
T12 construct: purchased Carna Biosciences
Description: as §1

EphA5 = target: T13, EphA5 (Homo sapiens, UniProt P54756)
T13 construct: purchased Carna Biosciences
Description: as §1

GSK3b = target: T14, GSK3b (Homo sapiens, UniProt P49841)
T14 construct: purchased Carna Biosciences
Description: as §1

HER2 = target: T15, HER2 (Homo sapiens, UniProt P04626)
T15 construct: purchased Carna Biosciences
Description: as §1

HGK = target: T16, HGK (Homo sapiens, UniProt O95819)
T16 construct: purchased Carna Biosciences
Description: as §1

IGF1R = target: T17, IGF1R (Homo sapiens, UniProt P08069)
T17 construct: purchased Carna Biosciences
Description: as §1

INSR = target: T18, INSR (Homo sapiens, UniProt P06213)
T18 construct: purchased Carna Biosciences
Description: as §1

IRAK4 = target: T19, IRAK4 (Homo sapiens, UniProt Q9NWZ3)
T19 construct: purchased Carna Biosciences
Description: as §1

JNK2 = target: T20, JNK2 (Homo sapiens, UniProt P45984)
T20 construct: purchased Carna Biosciences
Description: as §1

MAP2K3 = target: T21, MAP2K3 (Homo sapiens, UniProt P46734)
T21 construct: purchased Carna Biosciences
Description: as §1

MAP2K4 = target: T22, MAP2K4 (Homo sapiens, UniProt P45985)
T22 construct: purchased Carna Biosciences
Description: as §1

MAP4K2 = target: T23, MAP4K2 (Homo sapiens, UniProt Q12851)
T23 construct: purchased Carna Biosciences
Description: as §1

MARK2 = target: T24, MARK2 (Homo sapiens, UniProt Q7KZI7)
T24 construct: purchased Carna Biosciences
Description: as §1

MARK3 = target: T25, MARK3 (Homo sapiens, UniProt P27448)
T25 construct: purchased Carna Biosciences
Description: as §1

MELK = target: T26, MELK (Homo sapiens, UniProt Q14680)
T26 construct: purchased Carna Biosciences
Description: as §1

MINK = target: T27, MINK (Homo sapiens, UniProt Q8N4C8)
T27 construct: purchased Carna Biosciences
Description: as §1

MSK2 = target: T28, MSK2 (Homo sapiens, UniProt O75676)
T28 construct: purchased Carna Biosciences
Description: as §1

MST1 = target: T29, MST1 (Homo sapiens, UniProt Q13043)
T29 construct: purchased Carna Biosciences
Description: as §1

MST3 = target: T30, MST3 (Homo sapiens, UniProt Q9Y6E0)
T30 construct: purchased Carna Biosciences
Description: as §1

PHKG1 = target: T31, PHKG1 (Homo sapiens, UniProt Q16816)
T31 construct: purchased Carna Biosciences
Description: as §1

PHKG2 = target: T32, PHKG2 (Homo sapiens, UniProt P15735)
T32 construct: purchased Carna Biosciences
Description: as §1

PKACa = target: T33, PKACa (Homo sapiens, UniProt P17612)
T33 construct: purchased Carna Biosciences
Description: as §1

RET = target: T34, RET (Homo sapiens, UniProt P07949)
T34 construct: purchased Carna Biosciences
Description: as §1

ROCK1 = target: T35, ROCK1 (Homo sapiens, UniProt Q13464)
T35 construct: purchased Carna Biosciences
Description: as §1

RSK1 = target: T36, RSK1 (Homo sapiens, UniProt Q15418)
T36 construct: purchased Carna Biosciences
Description: as §1

SLK = target: T37, SLK (Homo sapiens, UniProt Q9H2G2)
T37 construct: purchased Carna Biosciences
Description: as §1

TBK1 = target: T38, TBK1 (Homo sapiens, UniProt Q9UHD2)
T38 construct: purchased Carna Biosciences
Description: as §1

TIE2 = target: T39, TIE2 (Homo sapiens, UniProt Q02763)
T39 construct: purchased Carna Biosciences
Description: as §1

TRKB = target: T40, TRKB (Homo sapiens, UniProt Q16620)
T40 construct: purchased Carna Biosciences
Description: as §1

TYRO3 = target: T41, TYRO3 (Homo sapiens, UniProt Q06418)
T41 construct: purchased Carna Biosciences
Description: as §1

WEE1 = target: T42, WEE1 (Homo sapiens, UniProt P30291)
T42 construct: purchased Carna Biosciences
Description: as §1

p38g = target: T43, p38g (Homo sapiens, UniProt P53778)
T43 construct: purchased Carna Biosciences
Description: as §1

p70S6Kb = target: T44, p70S6Kb (Homo sapiens, UniProt Q9UBS0)
T44 construct: purchased Carna Biosciences
Description: as §1

T41 sequence (Q06418 41-890): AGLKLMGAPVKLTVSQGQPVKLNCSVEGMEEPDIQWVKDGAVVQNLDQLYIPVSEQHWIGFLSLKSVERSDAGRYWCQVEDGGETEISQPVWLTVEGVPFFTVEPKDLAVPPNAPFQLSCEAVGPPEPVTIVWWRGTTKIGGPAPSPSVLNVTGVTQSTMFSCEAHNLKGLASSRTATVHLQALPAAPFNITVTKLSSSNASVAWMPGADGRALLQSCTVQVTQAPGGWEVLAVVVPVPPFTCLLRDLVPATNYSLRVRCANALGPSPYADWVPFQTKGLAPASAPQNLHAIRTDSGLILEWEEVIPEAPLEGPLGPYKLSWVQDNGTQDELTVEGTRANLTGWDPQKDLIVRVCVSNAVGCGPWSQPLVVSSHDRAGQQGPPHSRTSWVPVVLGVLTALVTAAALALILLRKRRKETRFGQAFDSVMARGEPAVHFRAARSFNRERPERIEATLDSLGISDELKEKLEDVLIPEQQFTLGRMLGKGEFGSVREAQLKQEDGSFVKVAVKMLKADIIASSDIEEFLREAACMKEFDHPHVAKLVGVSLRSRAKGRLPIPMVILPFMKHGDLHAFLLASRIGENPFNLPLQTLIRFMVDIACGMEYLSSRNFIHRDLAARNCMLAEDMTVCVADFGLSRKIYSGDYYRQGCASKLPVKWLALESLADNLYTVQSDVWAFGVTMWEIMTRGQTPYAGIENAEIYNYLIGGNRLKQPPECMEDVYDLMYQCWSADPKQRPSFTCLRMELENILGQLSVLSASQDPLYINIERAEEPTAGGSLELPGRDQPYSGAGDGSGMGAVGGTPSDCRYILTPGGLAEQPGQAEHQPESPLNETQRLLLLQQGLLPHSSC
T29 sequence (Q13043 whole entry): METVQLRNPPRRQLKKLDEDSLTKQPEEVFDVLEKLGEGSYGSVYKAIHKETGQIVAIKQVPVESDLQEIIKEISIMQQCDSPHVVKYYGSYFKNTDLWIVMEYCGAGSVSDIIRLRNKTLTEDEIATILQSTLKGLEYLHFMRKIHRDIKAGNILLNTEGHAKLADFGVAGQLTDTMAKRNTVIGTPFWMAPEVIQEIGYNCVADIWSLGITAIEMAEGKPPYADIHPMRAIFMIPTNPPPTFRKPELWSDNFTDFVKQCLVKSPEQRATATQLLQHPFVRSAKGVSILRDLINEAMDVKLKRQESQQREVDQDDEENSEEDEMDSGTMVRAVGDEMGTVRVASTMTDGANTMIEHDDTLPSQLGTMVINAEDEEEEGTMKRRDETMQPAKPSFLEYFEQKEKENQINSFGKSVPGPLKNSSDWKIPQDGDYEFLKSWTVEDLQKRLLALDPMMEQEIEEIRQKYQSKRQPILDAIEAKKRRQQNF
T30 sequence (Q9Y6E0 whole entry): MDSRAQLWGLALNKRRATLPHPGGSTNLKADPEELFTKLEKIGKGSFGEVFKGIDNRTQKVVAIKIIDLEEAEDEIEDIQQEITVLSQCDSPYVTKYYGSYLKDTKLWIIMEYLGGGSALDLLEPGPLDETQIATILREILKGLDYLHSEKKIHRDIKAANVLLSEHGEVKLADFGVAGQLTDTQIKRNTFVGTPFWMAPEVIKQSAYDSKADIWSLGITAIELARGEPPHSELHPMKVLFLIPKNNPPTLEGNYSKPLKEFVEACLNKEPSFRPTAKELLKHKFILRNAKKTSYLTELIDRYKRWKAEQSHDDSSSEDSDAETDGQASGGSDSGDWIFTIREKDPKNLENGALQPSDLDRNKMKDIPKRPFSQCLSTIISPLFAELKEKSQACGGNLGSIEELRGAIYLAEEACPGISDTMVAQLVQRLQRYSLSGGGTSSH
T35 sequence (Q13464 whole entry): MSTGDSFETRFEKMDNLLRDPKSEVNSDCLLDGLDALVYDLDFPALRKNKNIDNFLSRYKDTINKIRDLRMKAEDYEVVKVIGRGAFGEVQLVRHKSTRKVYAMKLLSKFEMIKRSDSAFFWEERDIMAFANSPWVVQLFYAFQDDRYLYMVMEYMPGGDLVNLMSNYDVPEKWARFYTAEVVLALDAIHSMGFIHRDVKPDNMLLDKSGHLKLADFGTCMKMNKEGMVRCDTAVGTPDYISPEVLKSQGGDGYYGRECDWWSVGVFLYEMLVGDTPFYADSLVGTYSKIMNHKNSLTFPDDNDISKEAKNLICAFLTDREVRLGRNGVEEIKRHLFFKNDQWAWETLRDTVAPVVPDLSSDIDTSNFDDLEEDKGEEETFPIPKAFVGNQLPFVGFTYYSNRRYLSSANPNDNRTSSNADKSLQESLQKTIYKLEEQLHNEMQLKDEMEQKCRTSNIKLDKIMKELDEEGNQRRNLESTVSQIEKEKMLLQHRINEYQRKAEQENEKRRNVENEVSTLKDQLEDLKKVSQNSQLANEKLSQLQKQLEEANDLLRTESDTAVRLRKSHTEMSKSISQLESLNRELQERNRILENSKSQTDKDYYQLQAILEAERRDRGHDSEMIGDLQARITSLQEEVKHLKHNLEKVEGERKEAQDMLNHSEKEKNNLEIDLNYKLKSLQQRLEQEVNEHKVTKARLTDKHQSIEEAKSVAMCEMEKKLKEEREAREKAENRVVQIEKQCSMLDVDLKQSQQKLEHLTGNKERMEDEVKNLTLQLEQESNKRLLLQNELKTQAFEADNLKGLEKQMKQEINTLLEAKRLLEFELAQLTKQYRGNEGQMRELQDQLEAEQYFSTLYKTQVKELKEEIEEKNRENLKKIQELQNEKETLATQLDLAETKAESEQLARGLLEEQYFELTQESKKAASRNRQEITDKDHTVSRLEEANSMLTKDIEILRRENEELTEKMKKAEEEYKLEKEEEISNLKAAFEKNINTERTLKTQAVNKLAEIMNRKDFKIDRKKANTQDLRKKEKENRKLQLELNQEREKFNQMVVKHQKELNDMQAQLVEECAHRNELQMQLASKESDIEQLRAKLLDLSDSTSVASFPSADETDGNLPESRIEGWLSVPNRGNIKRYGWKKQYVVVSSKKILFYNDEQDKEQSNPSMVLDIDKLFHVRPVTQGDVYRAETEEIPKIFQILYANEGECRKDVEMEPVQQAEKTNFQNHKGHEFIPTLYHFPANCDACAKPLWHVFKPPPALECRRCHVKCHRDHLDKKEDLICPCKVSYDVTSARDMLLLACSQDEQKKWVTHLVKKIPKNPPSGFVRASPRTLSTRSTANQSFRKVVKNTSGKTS
T43 sequence (P53778 whole entry): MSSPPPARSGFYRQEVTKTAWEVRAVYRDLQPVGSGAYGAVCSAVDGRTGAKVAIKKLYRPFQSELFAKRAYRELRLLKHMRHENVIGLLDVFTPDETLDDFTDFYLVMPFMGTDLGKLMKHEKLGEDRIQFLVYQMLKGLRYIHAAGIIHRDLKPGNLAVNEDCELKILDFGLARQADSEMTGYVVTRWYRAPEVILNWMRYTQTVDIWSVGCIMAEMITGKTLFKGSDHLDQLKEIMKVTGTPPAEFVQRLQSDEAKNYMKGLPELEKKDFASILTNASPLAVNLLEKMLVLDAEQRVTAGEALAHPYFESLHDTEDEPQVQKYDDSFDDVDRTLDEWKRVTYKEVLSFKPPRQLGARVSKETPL
T27 sequence (Q8N4C8 whole entry): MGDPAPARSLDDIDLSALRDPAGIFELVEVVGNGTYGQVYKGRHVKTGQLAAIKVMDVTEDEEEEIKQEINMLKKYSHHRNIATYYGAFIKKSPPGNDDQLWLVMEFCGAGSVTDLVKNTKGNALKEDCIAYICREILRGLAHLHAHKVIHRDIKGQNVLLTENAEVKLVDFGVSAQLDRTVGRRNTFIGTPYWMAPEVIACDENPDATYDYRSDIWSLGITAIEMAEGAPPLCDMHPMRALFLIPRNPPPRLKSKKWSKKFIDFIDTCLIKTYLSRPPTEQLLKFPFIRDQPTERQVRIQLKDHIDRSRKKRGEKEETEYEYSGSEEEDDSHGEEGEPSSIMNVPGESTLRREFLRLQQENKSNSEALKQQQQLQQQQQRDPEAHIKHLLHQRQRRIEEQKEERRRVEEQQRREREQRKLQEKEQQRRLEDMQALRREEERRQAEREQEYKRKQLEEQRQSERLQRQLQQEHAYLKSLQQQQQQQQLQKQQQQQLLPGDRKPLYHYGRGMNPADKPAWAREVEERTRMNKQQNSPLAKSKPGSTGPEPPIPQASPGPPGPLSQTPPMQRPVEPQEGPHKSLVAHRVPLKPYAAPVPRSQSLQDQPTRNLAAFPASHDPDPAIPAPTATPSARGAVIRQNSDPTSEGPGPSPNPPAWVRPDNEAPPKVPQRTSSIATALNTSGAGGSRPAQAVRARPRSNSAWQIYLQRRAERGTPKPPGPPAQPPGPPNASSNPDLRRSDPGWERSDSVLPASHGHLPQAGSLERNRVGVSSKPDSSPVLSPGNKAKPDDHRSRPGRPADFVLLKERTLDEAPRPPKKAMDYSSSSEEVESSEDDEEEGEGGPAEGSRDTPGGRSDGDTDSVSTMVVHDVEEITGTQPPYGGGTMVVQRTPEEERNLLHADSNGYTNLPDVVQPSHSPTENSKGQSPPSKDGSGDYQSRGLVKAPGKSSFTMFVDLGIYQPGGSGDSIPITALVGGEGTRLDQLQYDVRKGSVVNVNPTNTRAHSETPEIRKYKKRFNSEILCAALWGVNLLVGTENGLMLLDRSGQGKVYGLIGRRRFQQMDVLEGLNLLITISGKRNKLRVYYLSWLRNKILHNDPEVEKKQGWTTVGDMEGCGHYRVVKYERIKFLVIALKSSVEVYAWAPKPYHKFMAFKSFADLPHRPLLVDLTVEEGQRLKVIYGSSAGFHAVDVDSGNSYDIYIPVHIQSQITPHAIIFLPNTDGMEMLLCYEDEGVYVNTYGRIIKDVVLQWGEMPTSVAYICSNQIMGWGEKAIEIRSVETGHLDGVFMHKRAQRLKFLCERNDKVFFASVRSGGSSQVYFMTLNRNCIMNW

SMILES: CC[C@H](Nc1nc(NCc2cnc(C)cc2C)c2ncn(C(C)C)c2n1)[C@@H](C)O [Fadraciclib, 2-pentanol, 3-[[6-[[(4,6-dimethyl-3-pyridinyl)methyl]amino]-9-(1-methylethyl)-9Hpurin-2-yl]amino]-, (2R,3S)]
- inhibition at 1 µM (ABL): -12.7 ± 0.3%
- inhibition at 1 µM (ACK): -0.7%
- inhibition at 1 µM (ARG): 1.8 ± 0.1%
- inhibition at 1 µM (AurC): 3 ± 0.2%
- inhibition at 1 µM (BLK): -3.6%
- inhibition at 1 µM (BMPR1A): 2.2%
- inhibition at 1 µM (BMX): 6.6 ± 0.3%
- inhibition at 1 µM (CDK2): 97.3%
- inhibition at 1 µM (CGK2): -12.6 ± 0.5%
- inhibition at 1 µM (CHK2): -7.6 ± 0.1%
- inhibition at 1 µM (DAPK1): -8.8 ± 0.1%
- inhibition at 1 µM (EphA3): 1.6 ± 0.1%
- inhibition at 1 µM (EphA5): 4.9 ± 0.2%
- inhibition at 1 µM (GSK3b): 23.8 ± 1%
- inhibition at 1 µM (HER2): -17.6 ± 1%
- inhibition at 1 µM (HGK): -23.8 ± 2.7%
- inhibition at 1 µM (IGF1R): -17.1 ± 0.2%
- inhibition at 1 µM (INSR): -12.2 ± 0.8%
- inhibition at 1 µM (IRAK4): -10.1 ± 0.1%
- inhibition at 1 µM (JNK2): -19.3 ± 2.2%
- inhibition at 1 µM (MAP2K3): -12.3 ± 0.3%
- inhibition at 1 µM (MAP2K4): -2.7 ± 0.1%
- inhibition at 1 µM (MAP4K2): 2 ± 0.1%
- inhibition at 1 µM (MARK2): -1.9 ± 0.1%
- inhibition at 1 µM (MARK3): -0.9 ± 0.1%
- inhibition at 1 µM (MELK): 5 ± 0.1%
- inhibition at 1 µM (MINK): -15.8 ± 0.3%
- inhibition at 1 µM (MSK2): -3.7%
- inhibition at 1 µM (MST1): 4 ± 0.1%
- inhibition at 1 µM (MST3): -16.4 ± 0.7%
- inhibition at 1 µM (PHKG1): -15 ± 0.4%
- inhibition at 1 µM (PHKG2): -10 ± 0.1%
- inhibition at 1 µM (PKACa): -0.8%
- inhibition at 1 µM (RET): 3.4 ± 0.1%
- inhibition at 1 µM (ROCK1): -1.3%
- inhibition at 1 µM (RSK1): 5.1%
- inhibition at 1 µM (SLK): 2.5 ± 0.1%
- inhibition at 1 µM (TBK1): -4.8 ± 0.1%
- inhibition at 1 µM (TIE2): 2.9 ± 0.2%
- inhibition at 1 µM (TRKB): -11.4 ± 0.4%
- inhibition at 1 µM (TYRO3): -14.8 ± 0.2%
- inhibition at 1 µM (WEE1): 35.1 ± 0.1%
- inhibition at 1 µM (p38g): -0.6%
- inhibition at 1 µM (p70S6Kb): 1.9%
